From US20260355171A1, “INHIBITORS AND USES THEREFOR” (priority 2022, published 2026)
“And” between values parts separate entries of the source, which are not always exact repeats. Equal values may be shown once. Read-outs that look alike come from different tables or passages of the source.

What was measured:
[1] = Tissue (brain/lung) exposure, IP administration; assay type: in vivo, mouse; conditions: for Unbound Brain Parenchyma Concentration, individual / Unbound Plasma Concentration, individual / B:P ratio (brain:plasma), individual / L:P ratio, individual / Unbound B:P ratio (Kp,uu), individual / concentration / Kp at 0.5 h / concentration at 0.5 h / Kp uu at 0.5 h / Kp at 4 h / concentration at 4 h / Kp uu at 4 h / concentration at 24 h: 10 mg/kg; for Kp at 0.5 h / concentration at 0.5 h / Kp uu at 0.5 h / Kp at 4 h / concentration at 4 h / Kp uu at 4 h / concentration at 24 h: mouse, ip
Experimental: For the tissue collection, at 0.5, 4 and 24 h following IP administration, mice were anaesthetised (using gaseous isoflurane). Immediately after the submandibular bleed, mice were killed via cervical dislocation and the whole brain and lung were removed from each carcase. All these tissues were blotted to remove excess blood, placed into pre-weighed polypropylene vials and weighed. Tissue samples were snap frozen in dry ice and subsequently stored frozen at −80 °C until analysis. A summary of the bioanalytical method is included in Table 5.
Tissue: Pre-weighed tissue samples (brain and lung) were homogenised using a gentleMACS™ Octo Dissociator (Miltenyi Biotec, Macquarie Park, Australia) in buffer containing an EDTA/potassium fluoride solution (0.1 M/4 mg/mL) as a stabilisation cocktail to minimise the potential for ex vivo degradation (3 mL cocktail/g tissue). The tissue homogenate was briefly centrifuged (RCF=79×g) for 10 seconds to separate the foam layer before transferring an aliquot of the tissue homogenate (200 μL) to a fresh Eppendorf tube for sample extraction. Calibration standards were prepared by spiking blank brain and lung homogenate (200 μL) with the solution standards (10 μL) and the internal standard (10 μL). Study samples (for all tissue types) were similarly prepared, except that acetonitrile (10 μL) was added instead of solution standards to maintain the same volume. Protein precipitation was carried out by the addition of a 3-fold volume of acetonitrile, followed by vortex mixing and centrifugation (RCF=9391×g) for 3 min to recover the supernatant for analysis.
The concentration of compound 22 in brain or lung parenchyma was calculated on the basis of the measured concentration in brain or lung homogenate, after correcting for the contribution of compound contained within the vascular space of brain or lung samples as follows:
Ctissue=Ctissue homogentate−Ctissue vasculature where Ctissue vasculature=Cplasma×Vp • Ctissue=concentration of compound in brain or lung parenchyma (μM) • Ctissue homogenate=concentration of compound in brain or lung homogenate (μM) • Ctissue vasculature=concentration of compound in brain or lung vasculature (μM) • Cplasma=concentration of compound in plasma (μM)
Vp=brain plasma volume (0.017 mL/g for male C57BL/6 mice; Nicolazzo et al. (2010), Clinical and Experimental Pharmacology and Physiology, 37: 647-649) or lung plasma volume (0.16 mL/g of tissue, Boswell et al. (2014), Molecular Pharmaceutics, 11: 1591-1598)
Concentrations in brain or lung parenchyma were converted from units of ng/g to μM assuming a specific gravity of 1.
For each mouse, the tissue (brain or lung)-to-plasma concentration ratio (based on total concentrations in each matrix) was calculated as: […]
For brain uptake, the unbound brain-to-plasma partition coefficient (based on unbound concentrations in each matrix) was calculated as: […]

[2] = test system: primary neurons expressing SARS-CoV-2 NSP5 (AAV9-NSP5-V5); assay: Effect on neurons in the presence of NSP5 (AAV9-NSP5-V5, immunofluorescence); assay type: cell-based, mouse; conditions: 0.4, 2, 10 or 50 μM, two days
[3] = 0.5 h, IP 10 mg/kg, individual mice
[4] = 0.5 h, IP 10 mg/kg, individual mice, 30 min
[5] = 4.0 h, IP 10 mg/kg, individual mice
[6] = 4.0 h, IP 10 mg/kg, individual mice, 240 min

NC(=O)C1CCN(c2ncccc2CNCc2cccc3[nH]ccc23)CC1 [Compound 22]
Unbound Brain Parenchyma Concentration, individual [1, 3]: 0.160 µM and 0.138 µM and 0.169 µM
Unbound Plasma Concentration, individual [1, 3]: 1050 nM and 704 nM and 841 nM
B:P ratio (brain:plasma), individual [1, 4]: 0.23
L:P ratio, individual [1, 4]: 2.8 and 2.6
Unbound B:P ratio (Kp,uu), individual [1, 4]: 0.20
concentration ([1]; 0.5 h, IP 10 mg/kg, individual mice, 30 min, read-out: Total Brain Parenchyma Concentration, individual): 291 nM
concentration ([1]; 0.5 h, IP 10 mg/kg, individual mice, 30 min, read-out: Total Lung Parenchyma Concentration, individual): 3560 nM and 4000 nM
concentration ([1]; 0.5 h, IP 10 mg/kg, individual mice, 30 min, read-out: Total Plasma Concentration, individual): 1290 nM and 1540 nM
Unbound Brain Parenchyma Concentration, mean ([1]; 0.5 h, IP 10 mg/kg, mean): 0.155 µM
Unbound Plasma Concentration, mean ([1]; 0.5 h, IP 10 mg/kg, mean): 866 nM
Unbound Brain Parenchyma Concentration, individual [1, 5]: 0.0292 µM and 0.0285 µM
Unbound Plasma Concentration, individual [1, 5]: 4.3 nM and 3.3 nM
B:P ratio (brain:plasma), individual [1, 6]: 9.91
L:P ratio, individual [1, 6]: 68.6
Unbound B:P ratio (Kp,uu), individual [1, 6]: 8.59
concentration ([1]; 4.0 h, IP 10 mg/kg, individual mice, 240 min, read-out: Total Brain Parenchyma Concentration, individual): 60.1 nM
concentration ([1]; 4.0 h, IP 10 mg/kg, individual mice, 240 min, read-out: Total Lung Parenchyma Concentration, individual): 416 nM
concentration ([1]; 4.0 h, IP 10 mg/kg, individual mice, 240 min, read-out: Total Plasma Concentration, individual): 6.1 nM
Unbound Brain Parenchyma Concentration, mean ([1]; 4.0 h, IP 10 mg/kg, mean): 0.0288 µM
Unbound Plasma Concentration, mean ([1]; 4.0 h, IP 10 mg/kg, mean): 3.8 nM
Unbound Brain Parenchyma Concentration, individual ([1]; 24 h, IP 10 mg/kg, individual mice): 0.0060 µM and 0.0005 µM
concentration ([1]; 24 h, IP 10 mg/kg, individual mice, 1440 min, read-out: Total Lung Parenchyma Concentration, individual): 2.5 nM and 1.6 nM and 0.7 nM
Apparent tissue-to-plasma ratio (B:P or L:P) at 4 h versus 0.5 h ([1]; IP 10 mg/kg): substantially higher than that at 0.5 h
Duration of measurable concentrations in brain ([1]; IP 10 mg/kg): ≤ 4 h
Duration of measurable concentrations in lung ([1]; IP 10 mg/kg): up to 24 hours
Unbound Brain Parenchyma Concentration, mean ([1]; IP 10 mg/kg, mean): 0.0033 µM
Kp at 0.5 h ([1]; brain, 0.5 h, individual mice, read-out: B:P ratio (brain:plasma), individual): 0.18
concentration at 0.5 h ([1]; brain, 0.5 h, individual mice, read-out: Total Brain Parenchyma Concentration, individual): 337 nM
Kp uu at 0.5 h ([1]; brain, 0.5 h, individual mice, read-out: Unbound B:P ratio (Kp,uu), individual): 0.15
Kp at 0.5 h ([1]; brain, 0.5 h, mean, read-out: B:P ratio (brain:plasma), mean): 0.21
concentration at 0.5 h ([1]; brain, 0.5 h, mean, read-out: Total Brain Parenchyma Concentration, mean): 328 nM
Kp uu at 0.5 h ([1]; brain, 0.5 h, mean, read-out: Unbound B:P ratio (Kp,uu), mean): 0.18
Kp at 4 h ([1]; brain, 4.0 h, individual mice, read-out: B:P ratio (brain:plasma), individual): 7.9
concentration at 4 h ([1]; brain, 4.0 h, individual mice, read-out: Total Brain Parenchyma Concentration, individual): 61.6 nM
Kp uu at 4 h ([1]; brain, 4.0 h, individual mice, read-out: Unbound B:P ratio (Kp,uu), individual): 6.84
concentration at 4 h ([1]; brain, 4.0 h, mean, mouse 16 excluded, read-out: Total Brain Parenchyma Concentration, mean): 60.9 nM
Kp at 4 h ([1]; brain, 4.0 h, mean, read-out: B:P ratio (brain:plasma), mean): 8.9
Kp uu at 4 h ([1]; brain, 4.0 h, mean, read-out: Unbound B:P ratio (Kp,uu), mean): 7.72
concentration at 24 h ([1]; brain, 24 h, mean, read-out: Total Brain Parenchyma Concentration, mean): 6.9 nM
Kp at 0.5 h ([1]; lung, 0.5 h, individual mice, read-out: L:P ratio, individual): 2
concentration at 0.5 h ([1]; lung, 0.5 h, individual mice, read-out: Total Lung Parenchyma Concentration, individual): 3830 nM
Kp at 0.5 h ([1]; lung, 0.5 h, mean, read-out: L:P ratio, mean): 2.5
concentration at 0.5 h ([1]; lung, 0.5 h, mean, read-out: Total Lung Parenchyma Concentration, mean): 3800 nM
Kp at 4 h ([1]; lung, 4.0 h, individual mice, read-out: L:P ratio, individual): 45.7
concentration at 4 h ([1]; lung, 4.0 h, individual mice, read-out: Total Lung Parenchyma Concentration, individual): 356 nM
concentration at 4 h ([1]; lung, 4.0 h, mean, mouse 16 excluded, read-out: Total Lung Parenchyma Concentration, mean): 386 nM
Kp at 4 h ([1]; lung, 4.0 h, mean, read-out: L:P ratio, mean): 57.1
concentration at 24 h ([1]; lung, 24 h, mean, read-out: Total Lung Parenchyma Concentration, mean): 2.1 nM
concentration at 0.5 h ([1]; plasma, 0.5 h, individual mice, read-out: Total Plasma Concentration, individual): 1920 nM
concentration at 0.5 h ([1]; plasma, 0.5 h, mean, read-out: Total Plasma Concentration, mean): 1580 nM
concentration at 4 h ([1]; plasma, 4.0 h, individual mice, read-out: Total Plasma Concentration, individual): 7.8 nM
concentration at 4 h ([1]; plasma, 4.0 h, mean, mouse 16 excluded, read-out: Total Plasma Concentration, mean): 6.9 nM
Prevention of NSP5-induced neuronal death [2]: prevented NSP5-induced neuronal death in a dose-dependent manner
